Molecular target: T1, KRAS G12C 1-169, his-tagged protein, GDP-loaded (Homo sapiens, UniProt P01116, G12C)
T1 construct: KRAS G12C 1-169, his-tagged protein, GDP-loaded
Experiment: Biochemical assay: covalent modification of KRAS G12C measured by mass spectrometry (RapidFire/TOF or Q-Exactive)
Type: binding
Experimental: Test compounds were prepared as 10 mM stock solutions in DMSO (Fisher cat. #BP-231-100). KRAS G12C 1-169, his-tagged protein, GDP-loaded is diluted to 2 μM or 0.5 μM in buffer (20 mM Hepes, 150 mM NaCl, 1 mM MgCl2). Compounds were tested for activity as follows:
Compounds were diluted to 50× final test concentration in DMSO in 96-well storage plates. Compound stock solutions were vortexed before use and observed cwerefully for any sign of precipitation. Dilutions were as follow: • For 32 μM final compound concentration, compounds were diluted to 1600 μM (3 μL 10 mM compound stock +15.75 μL DMSO and mixed well by pipetting. • For 8 μM final compound concentration, compounds were diluted to 400 μM (2 μL 10 mM compound stock +48 μL DMSO) and mixed well by pipetting. 49 μL of the stock protein solution was added to each well of a 96-well PCR plate (Fisher cat#1423027). 1 μl of the diluted 50× compounds were added to appropriate wells in the PCR plate using 12-channel pipettor. Reactions were mixed carefully and thoroughly by pipetting up/down with a 200 μL multi-channel pipettor. The plate was sealed well with aluminum plate seal, and protein and compound were allowed to react for a desired amount of time. 5 μL of 2% formic acid (Fisher cat#A117) in de-ionized H2O was then added to each well followed by mixing with a pipette to quench the reaction. The plate was then resealed with aluminum seal and stored frozen on dry ice until analyzed as described below.
The above described assays were analyzed by mass spectrometry according to one of the following two procedures:
The MS instrument was set to positive polarity, 2 GHz resolution, and low mass (1700) mode and allowed to equilibrate for 30 minutes. The instrument was then calibrated, switched to acquisition mode and the appropriate method loaded.
After another 30 minute equilibration time, a blank batch (i.e., buffer) was run to ensure equipment is operating properly. The samples were thawed at 37° C. for 10 minutes, briefly centrifuged, and transfered to the bench top. Wells A1 and H12 were spiked with 1 μL 500 μM internal standard peptide, and the plates centrifuged at 2000×g for 5 minutes. The method was then run and masses of each individual well recorded.
The masses (for which integration data is desired) for each well were pasted into the platemap and exported from the analysis. Masses for the internal standards were exported as well. The data at 50 ppm was extracted for the +19 charge state, and identity of well A1 was assigned using the internal standard spike and integrated. Peak data was exported as a TOF list and the above steps were repeated individually, for the +20, +21, +22, +23, +24, and +25 charge states.
The masses and peak intensities of KRAS G12C protein species were measured using a Dionex RSLCnano system (Thermo Scientific) connected to a Q Exactive Plus mass spectrometer (Thermo Scientific).
20 μL of sample was loaded onto a Aeris™ 3.6 μm WIDEPORE C4 200 Å, LC Column 50×2.1 mm column maintained at 40° C. at a flow rate of 600 μL/min with 80% Solvent A (0.1% formic acid in H2O) and 20% Solvent B (0.1% formic acid in acetonitrile). The liquid chromatography conditions were 20% solvent B for 1 minute, 20% to 60% solvent B for 1.5 minutes, 60% to 90% solvent for 0.5 minute, 90% solvent B for 0.2 minute, 90% to 20% solvent B for 0.2 minute, and then equilibrated for 1.6 minute before the following sample injection. The flow rate was maintained at 600 μL/min throughout the sample analysis.
The mass spectrometer was operated in profile mode at a resolution of 17500, 5 microscans, using 50 msec max injection time and an AGC target of 1×10^6, and a full mass range from 800-1850 m/z was recorded. The intact protein mode was applied for optimal ion transfer and maximum sensitivity. The ionization method was electrospray ionization, which used a spray voltage of 4 kV, sheath gas flow set to 50 AU, auxiliary gas flow set to 10 AU and sweep gas flow set to 1 AU. […]

[1] = tested at a concentration of 8 μM

| SMILES | Bind % (tested at 32 μM) | Bind % [1] |
| --- | --- | --- |
| C=CC(=O)N1CC2(CCN(c3cc(OC[C@@H]4CCCN4C)cc(-c4c(C)ccc5[nH]ncc45)c3C#N)C2)C1 [Compound I-21, 2-(2-acryloyl-2,6-diazaspiro[3.4]octan-6-yl)-6-(5-methyl-1H-indazol-4-yl)-4-(((S)-1-methylpyrrolidin-2-yl)methoxy) benzonitrile] | +++ (+++ indicates binding activity greater than 75%) | – |
| C=CC(=O)N1CCC2(CC1)CCN(c1cc(OCc3ccccn3)cc(-c3c(C)ccc4[nH]ncc34)c1C#N)C2 [Compound I-58, 2-(8-acryloyl-2,8-diazaspiro[4.5]decan-2-yl)-6-(5-methyl-1H-indazol-4-yl)-4-(pyridin-2-ylmethoxy) benzonitrile] | + (+ indicates binding activity greater than 0% and up to 50%) | – |
| C=CC(=O)N1CC2(CCN(c3ccc(F)c(-c4c(C)ccc5[nH]ncc45)c3C#N)C2)C1 [Compound I-29, 6-(2-acryloyl-2,6-diazaspiro[3.4]octan-6-yl)-3-fluoro-2-(5-methyl-1H-indazol-4-yl)benzonitrile] | – | +++ (+++ indicates binding activity greater than 75%) |
| C=CC(=O)N1CC2(CCN(c3ccc(Cl)c(-c4c(C)ccc5[nH]ncc45)c3C#N)CC2)C1 [Compound I-85, 6-(2-acryloyl-2,7-diazaspiro[3.5]nonan-7-yl)-3-chloro-2-(5-methyl-1H-indazol-4-yl)benzonitrile] | + (+ indicates binding activity greater than 0% and up to 50%) | – |
| C=CC(=O)N1CC2(CCN(c3ccc(OC4CCN(C)CC4)c(-c4c(C)ccc5[nH]ncc45)c3C#N)CC2)C1 [Compound I-100, 6-(2-acryloyl-2,7-diazaspiro[3.5]nonan-7-yl)-2-(5-methyl-1H-indazol-4-yl)-3-((1-methylpiperidin-4-yl)oxy)benzo-nitrile] | + (+ indicates binding activity greater than 0% and up to 50%) | – |
| C=CC(=O)N1CC2(CCN(c3cc(N4CCOCC4)c(Cl)c(-c4c(C)ccc5[nH]ncc45)c3C#N)CC2)C1 [Compound I-124, 6-(2-acryloyl-2,7-diazaspiro[3.5]nonan-7-yl)-3-chloro-2-(5-methyl-1H-indazol-4-yl)-4-morpholino-benzonitrile] | + (+ indicates binding activity greater than 0% and up to 50%) | – |
| C=CC(=O)N1CC2(CCN(c3ccc(OCC(F)(F)F)c(-c4c(C)ccc5[nH]ncc45)c3C#N)CC2)C1 [Compound I-130, 6-(2-acryloyl-2,7-diazaspiro[3.5]nonan-7-yl)-2-(5-methyl-1H-indazol-4-yl)-3-(2,2,2-trifluoroethoxy) benzonitrile] | + (+ indicates binding activity greater than 0% and up to 50%) | – |
| CC#CC(=O)N1CC2(CCN(c3cccc(-c4c(O)cccc4F)c3C#N)C2)C1 [Compound I-18, 3-(2-(but-2-ynoyl)-2,6-diazaspiro[3.4]octan-6-yl)-2′-fluoro-6′-hydroxy-[1,1′-biphenyl]-2-carbonitrile] | + (+ indicates binding activity greater than 0% and up to 50%) | – |
| C=CC(=O)N1CC2(CCN(c3ccc(F)c(-c4c(C)ccc5[nH]ncc45)c3C#N)CC2)C1 [Compound I-111, 6-(2-acryloyl-2,7-diazaspiro[3.5]nonan-7-yl)-3-fluoro-2-(5-methyl-1H-indazol-4-yl)benzonitrile] | + (+ indicates binding activity greater than 0% and up to 50%) | – |
| C=CC(=O)N1CC2(CCN(c3ccc(F)c(-c4c(C)ccc5[nH]ncc45)c3C#N)C2)C1 (atropisomer, axis not shown) [Compound I-43, (R)-6-(2-acryloyl-2,6-diazaspiro[3.4]octan-6-yl)-3-fluoro-2-(5-methyl-1H-indazol-4-yl)benzonitrile] | – | +++ (+++ indicates binding activity greater than 75%) |
| C=CC(=O)N1CC2(CCN(c3cc(OCCCN(C)C)cc(-c4c(C)ccc5cnn(C)c45)c3C#N)C2)C1 [Compound I-35, 2-(2-acryloyl-2,6-diazaspiro[3.4]octan-6-yl)-6-(1,6-dimethyl-1H-indazol-7-yl)-4-(3-(dimethylamino)propoxy) benzonitrile] | – | ++ (++ indicates binding activity from 50 to 75%) |
| Cc1ccc2cnn(C)c2c1-c1cc(N2CCCC(O)C2)cc(N2CCC3(CN(C(=O)/C=C/CN(C)C)C3)C2)c1C#N (centres unmarked) [Compound I-69, (E)-2-(1,6-dimethyl-1H-indazol-7-yl)-6-(2-(4-(dimethylamino)but-2-enoyl)-2,6-diazaspiro[3.4]octan-6-yl)-4-(3-hydroxypiperidin-1-yl)benzonitrile] | + (+ indicates binding activity greater than 0% and up to 50%) | – |
| CC#CC(=O)N1CCCC2(C1)CN(c1cc(OCc3ccccn3)cc(-c3c(C)ccc4[nH]ncc34)c1C#N)C2 [Compound I-67, 2-(6-(but-2-ynoyl)-2,6-diazaspiro[3.5]nonan-2-yl)-6-(5-methyl-1H-indazol-4-yl)-4-(pyridin-2-ylmethoxy) benzonitrile] | + (+ indicates binding activity greater than 0% and up to 50%) | – |
| C=CC(=O)N1CC2(CCN(c3ccc(Nc4ccccc4)c(-c4c(C)ccc5[nH]ncc45)c3C#N)CC2)C1 [Compound I-115, 6-(2-acryloyl-2,7-diazaspiro[3.5]nonan-7-yl)-2-(5-methyl-1H-indazol-4-yl)-3-(phenylamino) benzonitrile] | + (+ indicates binding activity greater than 0% and up to 50%) | – |
| C=CC(=O)N1CC2(CCN(c3ccc(C#N)c(-c4c(C)ccc5[nH]ncc45)c3)C2)C1 [Compound I-101, 4-(2-acryloyl-2,6-diazaspiro[3.4]octan-6-yl)-2-(5-methyl-1H-indazol-4-yl)benzonitrile] | + (+ indicates binding activity greater than 0% and up to 50%) | – |
| C=CC(=O)N1CCC2(CCCN(c3cc(OCc4ccccn4)cc(-c4c(C)ccc5[nH]ncc45)c3C#N)C2)C1 (centres unmarked) [Compound I-62, 2-(2-acryloyl-2,7-diazaspiro[4.5]decan-7-yl)-6-(5-methyl-1H-indazol-4-yl)-4-(pyridin-2-ylmethoxy) benzonitrile] | + (+ indicates binding activity greater than 0% and up to 50%) | – |
| C=CC(=O)N1CCCC2(CCN(c3cc(OCc4ccccn4)cc(-c4c(C)ccc5[nH]ncc45)c3C#N)C2)C1 (centres unmarked) [Compound I-75, 2-(7-acryloyl-2,7-diazaspiro[4.5]decan-2-yl)-6-(5-methyl-1H-indazol-4-yl)-4-(pyridin-2-ylmethoxy) benzonitrile] | + (+ indicates binding activity greater than 0% and up to 50%) | – |
| C=CC(=O)N1CC2(CCN(c3cc(OCCCN(C)C)c(OC)c(-c4c(C)ccc5[nH]ncc45)c3)CC2)C1 [Compound I-103, 1-(7-(3-(3-(dimethylamino)propoxy)-4-methoxy-5-(5-methyl-1H-indazol-4-yl)phenyl)-2,7-diazaspiro[3.5]nonan-2-yl)prop-2-en-1-one] | ++ (++ indicates binding activity from 50 to 75%) | – |
| C=CC(=O)N1CC2(CCN(c3cccc(-c4c(C)ccc5[nH]ncc45)c3OC)C2)C1 [Compound I-2, 1-(6-(2-methoxy-3-(5-methyl-1H-indazol-4-yl)phenyl)-2,6-diazaspiro[3.4]octan-2-yl)prop-2-en-1-one] | + (+ indicates binding activity greater than 0% and up to 50%) | – |
| CC#CC(=O)N1CC2(CCN(c3cccc(-c4c(C)ccc5[nH]nc(N)c45)c3C#N)C2)C1 [Compound I-23, 2-(3-amino-5-methyl-1H-indazol-4-yl)-6-(2-(but-2-ynoyl)-2,6-diazaspiro[3.4]octan-6-yl)benzonitrile] | + (+ indicates binding activity greater than 0% and up to 50%) | – |

— US20210380595A1 (ARAXES PHARMA LLC, priority 2018, published 2021)
